Patent US8580829B2 (Boehringer Ingelheim International GmbH, priority 2010, dated 2013)

Columns and labels:
[1] = biological target: T1, recombinant human FLAP protein (Homo sapiens, UniProt P20292); assay: FLAP binding assay (Scintillation Proximity Assay, displacement of [125I]L-691,831); conditions: recombinant human FLAP membranes, [125I]L-691,831 probe; read-out: FLAP SPA IC50
T1 construct: made in house; host or cells: Sf9 insect cells (100,000 x g membrane fraction)
T1 sequence (P20292 1-161): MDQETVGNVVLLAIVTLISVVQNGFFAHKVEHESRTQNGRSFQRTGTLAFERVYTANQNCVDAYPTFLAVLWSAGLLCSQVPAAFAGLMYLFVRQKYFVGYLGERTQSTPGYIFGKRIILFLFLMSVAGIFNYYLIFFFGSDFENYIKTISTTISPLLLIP
Method in brief: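 Membranes came from Sf9 insect cells expressing recombinant human FLAP, collected as the 100,000×g pellet in Tris pH 7.5/MgCl2/EDTA buffer. 5 μg membrane protein was coupled to WGA SPA beads for 1 h.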

[2] = system: synthesis of LTB4 in human whole blood; assay: human whole blood LTB4 production inhibition assay; assay type: cell-based; conditions: Homo sapiens, heparinized human whole blood, calcimycin 20 μM; read-out: hWB LTB4 IC50
Method in brief: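 LTB4 in plasma was quantified by HTRF immunoassay. Before that, compound-treated heparinized whole blood (15 min, 37 °C) received 20 μM final calcimycin for a further 30 min at 37 °C, followed by centrifugation at 1500×g.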

| SMILES | IC50 [1] [µM] | IC50 [2] [µM] |
| --- | --- | --- |
| Nc1ncc(-c2ccc(C3(c4noc(-c5cc[nH]n5)n4)CCC3)cc2)cn1 [Example 93, 5-(4-{1-[5-(1H-Pyrazol-3-yl)-1,2,4-oxadiazol-3-yl]-cyclobutyl}-phenyl)-pyrimidin-2-ylamine] | 0.0024 | 0.16 |
| CN(CCO)c1cc(-c2nc(C3(c4ccc(-c5cnc(N)nc5)cc4)CCC3)no2)ccn1 [Example 94, 2-{[4-(3-{1-[4-(2-amino-pyrimidin-5-yl)-phenyl]-cyclobutyl}-1,2,4-oxadiazol-5-yl)-pyridin-2-yl]-methyl-amino}-ethanol] | 0.0061 | 0.56 |
| Nc1ncc(-c2ccc(C3(c4noc(-c5ccnc(NCCO)c5)n4)CCC3)cc2)cn1 [Example 95, 2-[4-(3-{1-[4-(2-Amino-pyrimidin-5-yl)-phenyl]-cyclobutyl}-1,2,4-oxadiazol-5-yl)-pyridin-2-ylamino]-ethanol] | 0.0032 | 0.13 |
| Nc1ncc(-c2ccc(C3(c4noc(-c5nc[nH]n5)n4)CCC3)cc2)cn1 [Example 96, 5-(4-{1-[5-(1H-1,2,4-Triazol-3-yl)-1,2,4-oxadiazol-3-yl]-cyclobutyl}-phenyl)-pyrimidin-2-ylamine] | 0.013 | 2.7 |
| COCCNc1cc(-c2nc(C3(c4ccc(-c5cnc(N)nc5)cc4)CCC3)no2)ccn1 [Example 97, 5-[4-(1-{5-[2-(2-Methoxy-ethylamino)-pyridin-4-yl]-1,2,4-oxadiazol-3-yl}-cyclobutyl)-phenyl]-pyrimidin-2-ylamine] | 0.0029 | 0.092 |
| COc1cc(-c2nc(C3(c4ccc(-c5cnc(N)nc5)cc4)CCC3)no2)ccc1O [Example 98, 4-(3-{1-[4-(2-Amino-pyrimidin-5-yl)-phenyl]-cyclobutyl}-1,2,4-oxadiazol-5-yl)-2-methoxy-phenol] | 0.0023 | 0.11 |
| Cc1cc(-c2nc(C3(c4ccc(-c5cnc(N)nc5)cc4)CCC3)no2)ccc1O [Example 99, 4-(3-{1-[4-(2-Amino-pyrimidin-5-yl)-phenyl]-cyclobutyl}-1,2,4-oxadiazol-5-yl)-2-methyl-phenol] | 0.002 | 0.15 |
| Nc1ncc(-c2ccc(C3(c4noc(-c5ccc(O)c(Cl)c5)n4)CCC3)cc2)cn1 [Example 100, 4-(3-{1-[4-(2-Amino-pyrimidin-5-yl)-phenyl]-cyclobutyl}-1,2,4-oxadiazol-5-yl)-2-chloro-phenol] | 0.0021 | 0.17 |
| Nc1ncc(-c2ccc(C3(c4noc(-c5ccc(Cl)nc5)n4)CCC3)cc2)cn1 [Example 101, 5-(4-{1-[5-(6-Chloro-pyridin-3-yl)-1,2,4-oxadiazol-3-yl]-cyclobutyl}-phenyl)-pyrimidin-2-ylamine] | 0.0033 | 0.25 |
| Nc1ncc(-c2ccc(C3(c4noc(-c5ccc(N6CCC[C@@H]6CO)nc5)n4)CCC3)cc2)cn1 [Example 102, {(R)-1-[5-(3-{1-[4-(2-Amino-pyrimidin-5-yl)-phenyl]-cyclobutyl}-1,2,4-oxadiazol-5-yl)-pyridin-2-yl]-pyrrolidin-2-yl}-methanol] | 0.0025 | 0.18 |
| Nc1ncc(-c2ccc(C3(c4noc(-c5ccc(N6CC[C@@H](O)C6)nc5)n4)CCC3)cc2)cn1 [Example 103, (R)-1-[5-(3-{1-[4-(2-Amino-pyrimidin-5-yl)-phenyl]-cyclobutyl}-1,2,4-oxadiazol-5-yl)-pyridin-2-yl]-pyrrolidin-3-ol] | 0.0013 | 0.063 |
| Nc1ncc(-c2ccc(C3(c4noc(-c5ccc(N6CCNCC6)cc5)n4)CCC3)cc2)cn1 [Example 104] | 0.0013 | 0.099 |
| Nc1ncc(-c2ccc(C3(c4noc(-c5ccc(N6CC[C@H](O)C6)nc5)n4)CCC3)cc2)cn1 [Example 105, (S)-1-[5-(3-{1-[4-(2-Amino-pyrimidin-5-yl)-phenyl]-cyclobutyl}-1,2,4-oxadiazol-5-yl)-pyridin-2-yl]-pyrrolidin-3-ol] | 0.0019 | 0.078 |
| CCOC(=O)CCN1CCN(c2ccc(-c3nc(C4(c5ccc(-c6cnc(N)nc6)cc5)CCC4)no3)cn2)CC1 [Example 106, 3-{4-[5-(3-{1-[4-(2-Amino-pyrimidin-5-yl)-phenyl]-cyclobutyl}-1,2,4-oxadiazol-5-yl)-pyridin-2-yl]-piperazin-1-yl}-propionic acid ethyl ester] | 0.0027 | 0.13 |
| Nc1ncc(-c2ccc(C3(c4noc(-c5ccc(N6CCS(=O)(=O)CC6)nc5)n4)CCC3)cc2)cn1 [Example 107, 5-[4-(1-{5-[6-(1,1-Dioxo-1λ^6-thiomorpholin-4-yl)-pyridin-3-yl]-1,2,4-oxadiazol-3-yl}-cyclobutyl)-phenyl]-pyrimidin-2-ylamine] | 0.0014 | 0.098 |
| CS(=O)(=O)CCNc1ccc(-c2nc(C3(c4ccc(-c5cnc(N)nc5)cc4)CCC3)no2)cn1 [Example 108, 5-[4-(1-{5-[6-(2-Methanesulfonyl-ethylamino)-pyridin-3-yl]-1,2,4-oxadiazol-3-yl}-cyclobutyl)-phenyl]-pyrimidin-2-ylamine] | 0.0013 | 0.11 |
| CS(=O)(=O)N1CCN(c2ccc(-c3nc(C4(c5ccc(-c6cnc(N)nc6)cc5)CCC4)no3)cn2)CC1 [Example 109, 5-[4-(1-{5-[6-(4-Methanesulfonyl-piperazin-1-yl)-pyridin-3-yl]-1,2,4-oxadiazol-3-yl}-cyclobutyl)-phenyl]-pyrimidin-2-ylamine] | 0.0013 | 0.098 |
| CS(=O)(=O)C1CCN(c2ccc(-c3nc(C4(c5ccc(-c6cnc(N)nc6)cc5)CCC4)no3)cn2)C1 (centres unmarked) [Example 110, 5-[4-(1-{5-[6-(3-Methanesulfonyl-pyrrolidin-1-yl)-pyridin-3-yl]-1,2,4-oxadiazol-3-yl}-cyclobutyl)-phenyl]-pyrimidin-2-ylamine] | 0.00092 | 0.11 |
| COCCNc1ccc(-c2nc(C3(c4ccc(-c5cnc(N)nc5)cc4)CCC3)no2)nn1 [Example 111, [6-(3-{1-[4-(2-amino-pyrimidin-5-yl)-phenyl]-cyclobutyl}-1,2,4-oxadiazol-5-yl)-pyridazin-3-yl]-(2-methoxy-ethyl)-amine] | 0.0012 | 0.032 |
| Nc1ncc(-c2ccc(C3(c4noc(-c5ccc(NCCO)nn5)n4)CCC3)cc2)cn1 [Example 112, 2-[6-(3-{1-[4-(2-Amino-pyrimidin-5-yl)-phenyl]-cyclobutyl}-1,2,4-oxadiazol-5-yl)-pyridazin-3-ylamino]-ethanol] | 0.0014 | 0.76 |
| CN(CCO)c1ccc(-c2nc(C3(c4ccc(-c5cnc(N)nc5)cc4)CCC3)no2)nn1 [Example 113, 2-{[6-(3-{1-[4-(2-Amino-pyrimidin-5-yl)-phenyl]-cyclobutyl}-1,2,4-oxadiazol-5-yl)-pyridazin-3-yl]-methyl-amino}-ethanol] | 0.0016 | 0.1 |
| CC(C)(O)CNc1ccc(-c2nc(C3(c4ccc(-c5cnc(N)nc5)cc4)CCC3)no2)nn1 [Example 114, 1-[6-(3-{1-[4-(2-Amino-pyrimidin-5-yl)-phenyl]-cyclobutyl}-1,2,4-oxadiazol-5-yl)-pyridazin-3-ylamino]-2-methyl-propan-2-ol] | 0.0026 | 0.29 |
